Our source for the k cat values is ChEMBL document CHEMBL1133673, “Crystal structure of FMN-dependent nitroreductase from Escherichia coli B: a prodrug-activating enzyme” (J Med Chem, 2000).

In test [1] the test system is Escherichia coli B. Description: Catalytic constant determined to activate by FMN-dependent nitroreductase enzyme from Escherichia coli B (NTR).
Test [2] has as its target NAD(P)H dehydrogenase [quinone] 1 (Homo sapiens) (UniProt P15559). Description: Catalytic constant determined to activate by DT diaphorase in human cell lines.

Chain of NAD(P)H dehydrogenase [quinone] 1 (Homo sapiens) (P15559 whole entry): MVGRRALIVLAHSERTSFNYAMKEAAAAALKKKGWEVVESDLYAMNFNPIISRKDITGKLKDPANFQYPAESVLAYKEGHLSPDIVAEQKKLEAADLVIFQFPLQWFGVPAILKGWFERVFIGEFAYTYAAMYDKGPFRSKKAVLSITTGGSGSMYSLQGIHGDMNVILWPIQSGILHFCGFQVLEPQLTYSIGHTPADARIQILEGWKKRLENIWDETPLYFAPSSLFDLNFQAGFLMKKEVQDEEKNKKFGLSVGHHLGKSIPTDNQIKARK

In test [1], `NC(=O)c1cc(N(CCCl)CCCl)c([N+](=O)[O-])cc1[N+](=O)[O-]` registered a k cat of 26.3 s⁻¹. Consider `NC(=O)c1cc(N2CC2)c([N+](=O)[O-])cc1[N+](=O)[O-]`, for which the k cat turned out to be 0.0107 s⁻¹ in test [2] and 6 s⁻¹ in test [1].
